# Laboratory results from publication PMC4503722, “Novel Phenotypic Outcomes Identified for a Public Collection of Approved Drugs from a Publicly Accessible Panel of Assays” (PLoS ONE, 2015).
# Where two headings read alike, the source gives them in different places.
# Columns and labels:
# Assay in all cases: cells
# Type in all cases: cell-based
# Colo320 = conditions: for IC50: read-out: Basal_Viability ATP Colo 320 summarized IC50
# SW480 = conditions: for IC50: read-out: Basal_Viability ATP SW480 summarized IC50
# HT-29 = conditions: for IC50: read-out: Basal_Viability ATP HT-29 summarized IC50
# [1] = test system: HCT116 cells treated with a GSK3β inhibitor; conditions: for IC50/EC50, GSK3b inh pretreated_Viability ATP HCT116 (assay number 26): GSK3b inh pretreated; for IC50: read-out: GSK3b inh pretreated_Viability ATP HCT116 summarized IC50
# DLD-1 = conditions: for IC50: read-out: Basal_Viability ATP DLD-1 summarized IC50
# SNU-C1 = conditions: for IC50: read-out: Basal_Viability ATP SNU-C1 summarized IC50
# HCT116 = conditions: for IC50: read-out: Basal_Viability ATP HCT116 summarized IC50
# RKO = conditions: for IC50: read-out: Basal_Viability ATP RKO summarized IC50
# HeLa cells = test system: HeLa cells;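 on Hela CellCycMod PI 4N summarized IC50: value tracks stimulation of 4N DNA content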
# [2] = assay number 26, GSK3b inhibitor pretreated
smiles,measurement,setting,value
Nc1ccc(C(=O)Nc2ccccc2N)cc1 [NCGC00160373-02],"IC50/EC50, Basal_Viability ATP Colo 320 (assay number 27)",Colo320; basal,> 20 µM
same,"IC50/EC50, Basal_Viability ATP SW480 (assay number 24)",SW480; basal,> 20 µM
same,"IC50/EC50, Basal_Viability ATP HT-29 (assay number 28)",HT-29; basal,> 20 µM
same,"IC50/EC50, GSK3b inh pretreated_Viability ATP HCT116 (assay number 26)",[1],12.8536 µM
same,"IC50/EC50, Basal_Viability ATP DLD-1 (assay number 23)",DLD-1; basal,> 20 µM
same,"IC50/EC50, Basal_Viability ATP SNU-C1 (assay number 30)",SNU-C1; basal,> 20 µM
same,"IC50/EC50, Basal_Viability ATP HCT116 (assay number 25)",HCT116; basal,> 6.6667 µM
same,"IC50/EC50, Basal_Viability ATP RKO (assay number 29)",RKO; basal,> 20 µM
COc1ccc(CN2CCN(C(c3ccc(F)cc3)c3ccc(F)cc3)CC2)c(OC)c1OC.Cl.Cl [NCGC00164543-02],Basal_Viability ATP Colo 320 IC50/EC50,Colo320; assay number 27,2.817 µM
same,Basal_Viability ATP SW480 IC50/EC50,SW480; assay number 24,3.3247 µM
same,Basal_Viability ATP HT-29 IC50/EC50,HT-29; assay number 28,2.926 µM
same,GSK3b inh pretreated_Viability ATP HCT116 IC50/EC50,[1]; [2],2.7677 µM
same,Basal_Viability ATP DLD-1 IC50/EC50,DLD-1; assay number 23,3.1331 µM
same,Basal_Viability ATP SNU-C1 IC50/EC50,SNU-C1; assay number 30,0.4428 µM
same,Basal_Viability ATP HCT116 IC50/EC50,"HCT116; assay number 25, basal",1.7018 µM
same,Basal_Viability ATP RKO IC50/EC50,RKO; assay number 29,3.6952 µM
CCN1/C(=C/C=C/c2sc3ccccc3[n+]2CC)Sc2ccccc21.[I-] [NCGC00166288-02],"IC50/EC50, Basal_Viability ATP Colo 320 (assay number 27)",Colo320; basal,0.562 µM
same,"IC50/EC50, Basal_Viability ATP SW480 (assay number 24)",SW480; basal,0.172 µM
same,"IC50/EC50, Hela CellCycMod PI 2N (assay number 14)",HeLa cells; 2N,8.506 µM
same,"IC50/EC50, Hela CellCycMod PI 4N (assay number 16)",HeLa cells; 4N,> 10 µM
same,"IC50/EC50, Hela CellCycMod PI Cell Number (assay number 18)",HeLa cells; Cell Number,0.03604 µM
same,"IC50/EC50, Hela CellCycMod PI MI (assay number 17)",HeLa cells; MI,4.476 µM
same,"IC50/EC50, Hela CellCycMod PI S Phase (assay number 15)",HeLa cells; S Phase,> 10 µM
same,"IC50/EC50, Basal_Viability ATP HT-29 (assay number 28)",HT-29; basal,0.00838 µM
same,"IC50/EC50, GSK3b inh pretreated_Viability ATP HCT116 (assay number 26)",[1],0.00875 µM
same,"IC50/EC50, Basal_Viability ATP DLD-1 (assay number 23)",DLD-1; basal,0.0148 µM
same,"IC50/EC50, Basal_Viability ATP SNU-C1 (assay number 30)",SNU-C1; basal,0.01721 µM
same,"IC50/EC50, Basal_Viability ATP HCT116 (assay number 25)",HCT116; basal,0.00957 µM
same,"IC50/EC50, Basal_Viability ATP RKO (assay number 29)",RKO; basal,0.00898 µM
O=C(O)CCc1nc2ccccc2[nH]1 [NCGC00013414-04],IC50,"Colo320; assay number 27, basal",> 20 µM
same,IC50,"SW480; assay number 24, basal",> 20 µM
same,IC50,"HeLa cells; assay number 14, 2N, read-out: Hela CellCycMod PI 2N summarized IC50",> 10 µM
same,IC50,"HeLa cells; assay number 15, S phase, read-out: Hela CellCycMod PI S Phase summarized IC50",> 10 µM
same,IC50,"HeLa cells; assay number 16, 4N, read-out: Hela CellCycMod PI 4N summarized IC50",> 10 µM
same,IC50,"HeLa cells; assay number 17, MI, read-out: Hela CellCycMod PI MI summarized IC50",> 10 µM
same,IC50,"HeLa cells; assay number 18, cell number, read-out: Hela CellCycMod PI Cell Number summarized IC50",> 10 µM
same,IC50,"HT-29; assay number 28, basal",> 20 µM
same,IC50,[1]; [2],2.2 µM
same,IC50,"DLD-1; assay number 23, basal",2.42 µM
same,IC50,"SNU-C1; assay number 30, basal",> 20 µM
same,IC50,"HCT116; assay number 25, basal",> 20 µM
same,IC50,"RKO; assay number 29, basal",> 20 µM
O=C(Nc1ccc(Cl)cc1)Nc1ccc(Cl)c(C(F)(F)F)c1 [NCGC00185743-02],IC50,"Colo320; assay number 27, basal",0.003 µM
same,IC50,"SW480; assay number 24, basal",0.009 µM
same,IC50,"HT-29; assay number 28, basal",0.001 µM
same,IC50,[1]; [2],0.003 µM
same,IC50,"DLD-1; assay number 23, basal",0.027 µM
same,IC50,"SNU-C1; assay number 30, basal",0.009 µM
same,IC50,"HCT116; assay number 25, basal",0.003 µM
same,IC50,"RKO; assay number 29, basal",0.003 µM
O=C(c1cc(O)c(O)c(O)c1)c1ccc(O)c(O)c1O [NCGC00249050-02],Basal_Viability ATP Colo 320 IC50/EC50,Colo320,9.382 µM
same,Basal_Viability ATP SW480 IC50/EC50,SW480,9.9516 µM
same,Hela CellCycMod PI 2N IC50/EC50,HeLa cells,> 10 µM
same,Hela CellCycMod PI 4N IC50/EC50,HeLa cells,> 10 µM
same,Hela CellCycMod PI Cell Number IC50/EC50,HeLa cells,> 10 µM
same,Hela CellCycMod PI MI IC50/EC50,HeLa cells,> 10 µM
same,Hela CellCycMod PI S Phase IC50/EC50,HeLa cells,> 10 µM
same,Basal_Viability ATP HT-29 IC50/EC50,HT-29,9.4494 µM
same,GSK3b inh pretreated_Viability ATP HCT116 IC50/EC50,[1],0.06911 µM
same,Basal_Viability ATP DLD-1 IC50/EC50,DLD-1,11.8874 µM
same,Basal_Viability ATP SNU-C1 IC50/EC50,SNU-C1,12.767 µM
same,Basal_Viability ATP HCT116 IC50/EC50,HCT116,16.3036 µM
same,Basal_Viability ATP RKO IC50/EC50,RKO,0.1924 µM
Cc1nnc(NS(=O)(=O)c2ccc(N)cc2)s1 [NCGC00016407-08],IC50,"Colo320; assay number 27, basal",> 20 µM
same,IC50,"SW480; assay number 24, basal",> 20 µM
same,IC50,"HT-29; assay number 28, basal",> 20 µM
same,IC50,[1]; [2],> 20 µM
same,IC50,"DLD-1; assay number 23, basal",> 20 µM
same,IC50,"SNU-C1; assay number 30, basal",> 20 µM
same,IC50,"HCT116; assay number 25, basal",> 20 µM
same,IC50,"RKO; assay number 29, basal",> 20 µM
CCCCCCCCCCCCCCCCC(C(=O)O)C(O)(CC(=O)O)C(=O)O (stereo not shown) [NCGC00167547-02],Basal_Viability ATP Colo 320 IC50/EC50,"Colo320; assay number 27, basal",1.3621 µM
same,Basal_Viability ATP SW480 IC50/EC50,"SW480; assay number 24, basal",1.1952 µM
same,Basal_Viability ATP HT-29 IC50/EC50,"HT-29; assay number 28, basal",4.0996 µM
same,GSK3b inh pretreated_Viability ATP HCT116 IC50/EC50,[1]; [2],4.3382 µM
same,Basal_Viability ATP DLD-1 IC50/EC50,"DLD-1; assay number 23, basal",4.2832 µM
same,Basal_Viability ATP SNU-C1 IC50/EC50,"SNU-C1; assay number 30, basal",1.3613 µM
same,Basal_Viability ATP HCT116 IC50/EC50,"HCT116; assay number 25, basal",8.6847 µM
same,Basal_Viability ATP RKO IC50/EC50,"RKO; assay number 29, basal",3.4822 µM
